# Target: human plasma kallikrein (Homo sapiens (Human), UniProt P03952)
# Assay: Plasma kallikrein activity assay (chromogenic substrate S2302)
# Format: biochemical
# Conditions: 2 nM kallikrein, 80 μM S2302, 30° C., pH 7.8; Ki by Cheng-Prusoff equation; values given as ranges; read-out: Ki
# Chain of human plasma kallikrein (P03952 whole entry, looked up): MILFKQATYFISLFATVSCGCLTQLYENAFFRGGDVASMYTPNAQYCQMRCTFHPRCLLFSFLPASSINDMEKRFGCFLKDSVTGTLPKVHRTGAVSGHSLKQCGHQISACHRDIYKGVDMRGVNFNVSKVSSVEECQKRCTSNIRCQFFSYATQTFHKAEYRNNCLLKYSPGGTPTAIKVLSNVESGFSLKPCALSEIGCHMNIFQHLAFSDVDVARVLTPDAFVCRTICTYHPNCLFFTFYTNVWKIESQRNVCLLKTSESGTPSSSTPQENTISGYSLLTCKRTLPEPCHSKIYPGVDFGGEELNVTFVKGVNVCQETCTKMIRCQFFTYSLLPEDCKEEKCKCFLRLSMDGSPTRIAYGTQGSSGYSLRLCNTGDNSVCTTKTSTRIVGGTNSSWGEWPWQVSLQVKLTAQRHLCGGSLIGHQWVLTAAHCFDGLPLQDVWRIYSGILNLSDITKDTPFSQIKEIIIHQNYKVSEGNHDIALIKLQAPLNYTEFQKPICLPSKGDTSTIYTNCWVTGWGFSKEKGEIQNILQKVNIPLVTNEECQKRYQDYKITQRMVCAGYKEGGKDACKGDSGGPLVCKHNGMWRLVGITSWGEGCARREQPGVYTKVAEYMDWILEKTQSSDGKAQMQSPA
# Chain of human plasma kallikrein (P03952 whole entry partner, looked up): as the sequence (P03952 whole entry, looked up) above
row,Compound,Ki
1,"CC(C)C(=O)NC(CCC1CC1)(c1cccnc1)c1ccc(F)c(NC(=O)c2cc(C(F)(F)F)nn2-c2cccc(CN)c2)c1 (single isomer, unassigned; (-)) [244j, (−)-1-(3-(aminomethyl)phenyl)-N-(5-(3-cyclopropyl-1-isobutyramido-1-(pyridin-3-yl)propyl)-2-fluorophenyl)-3-(trifluoromethyl)-1H-pyrazole-5-carboxamide]",0.1 to 50 nM
2,"NCc1cccc(-n2nc(C(F)(F)F)cc2C(=O)Nc2cccc(C(NC3CCC3)c3ccccc3)c2)c1 (stereo not drawn) [188b, 1-(3-(Aminomethyl)phenyl)-N-(3-((cyclobutylamino)(phenyl)methyl)phenyl)-3-(trifluoromethyl)-1H-pyrazole-5-carboxamide]",0.1 to 50 nM
3,"NCc1cccc(-n2nc(C(F)(F)F)cc2C(=O)Nc2cccc(C(OCC3CC3)c3ccccn3)c2)c1 (single isomer, unassigned; (+)) [43h, (+)-1-(3-(aminomethyl)phenyl)-N-(3-((cyclopropylmethoxy)(pyridin-2-yl)methyl)-phenyl)-3-(trifluoromethyl)-1H-pyrazole-5-carboxamide]",0.1 to 50 nM
4,"NCc1cccc(-n2nc(C(F)(F)F)cc2C(=O)Nc2cccc(C(CCC3CC3)c3cc[nH]c3)c2)c1 (stereo not drawn) [103b, 1-(3-(aminomethyl)phenyl)-N-(3-(3-cyclopropyl-1-(1H-pyrrol-3-yl)propyl)phenyl)-3-(trifluoromethyl)-1H-pyrazole-5-carboxamide]",0.1 to 50 nM
5,"NCc1cccc(-n2nc(C(F)(F)F)cc2C(=O)Nc2cc(C(NCC3CC3)c3ccncc3)ccc2F)c1 (stereo not drawn) [132f, 1-(3-(aminomethyl)phenyl)-N-(5-(((cyclopropylmethyl)amino)(pyridin-4-yl)methyl)-2-fluorophenyl)-3-(trifluoromethyl)-1H-pyrazole-5-carboxamide]",0.1 to 50 nM
6,"CN1CCc2c(ccc(NC(=O)c3cc(C(F)(F)F)nn3-c3cccc(CN)c3)c2F)C1 [164e, 1-(3-(aminomethyl)phenyl)-N-(5-fluoro-2-methyl-1,2,3,4-tetrahydroisoquinolin-6-yl)-3-(trifluoromethyl)-1H-pyrazole-5-carboxamide]",0.1 to 50 nM
7,"COc1ccc(C(NCC2CC2)c2cccc(NC(=O)c3cc(C(F)(F)F)nn3-c3cccc(CN)c3)c2)c2ccccc12 (stereo not drawn) [154e, 1-(3-(aminomethyl)phenyl)-N-(3-((cyclopropylmethylamino)(4-methoxynaphthalen-1-yl)methyl)phenyl)-3-(trifluoromethyl)-1H-pyrazole-5-carboxamide]",0.1 to 50 nM
8,NCc1cccc(-n2nc(C(F)(F)F)cc2C(=O)Nc2cccc(C(NCC3CC3)c3ccc(Cl)cc3)c2)c1 (stereo not drawn) [199f],0.1 to 50 nM
9,"CCCN(c1ccccc1)c1cccc(NC(=O)c2cc(C(F)(F)F)nn2-c2cccc(CN)c2)c1F [29e, 1-(3-(aminomethyl)phenyl)-N-(2-fluoro-3-(phenyl(propyl)amino)phenyl)-3-(trifluoromethyl)-1H-pyrazole-5-carboxamide]",0.1 to 50 nM
10,"CCCOC(c1ccccc1)c1cccc(NC(=O)c2cc(C(F)(F)F)nn2-c2cccc(CN)c2)c1 (stereo not drawn) [18h, 1-(3-(aminomethyl)phenyl)-N-(3-(phenyl(propoxy)methyl)phenyl)-3-(trifluoromethyl)-1H-pyrazole-5-carboxamide]",50 to 100 nM
11,"Nc1nccc2ccc(-n3nc(C(F)(F)F)cc3C(=O)Nc3cc(C(CCC4CC4)n4ccc(=O)[nH]c4=O)ccc3F)cc12 (stereo not drawn) [269b, 1-(1-aminoisoquinolin-7-yl)-N-(5-(3-cyclopropyl-1-(2,4-dioxo-3,4-dihydropyrimidin-1(2H)-yl)propyl)-2-fluorophenyl)-3-(trifluoromethyl)-1H-pyrazole-5-carboxamide]",0.1 to 50 nM
12,"CS(=O)(=O)NC(CCC1CC1)(c1ccncc1)c1ccc(F)c(NC(=O)c2cc(C(F)(F)F)nn2-c2ccc3ccnc(N)c3c2)c1 (single isomer, unassigned; (-)) [262f, (−)-1-(1-aminoisoquinolin-7-yl)-N-(5-(3-cyclopropyl-1-(methylsulfonamido)-1-(pyridin-4-yl)propyl)-2-fluorophenyl)-3-(trifluoromethyl)-1H-pyrazole-5-carboxamide]",0.1 to 50 nM
13,"NCc1cccc(-n2nc(C(F)(F)F)cc2C(=O)Nc2cccc(C(O)(CCC3CC3)c3ccccn3)c2)c1 (stereo not drawn) [45g, 1-(3-(aminomethyl)phenyl)-N-(3-(3-cyclopropyl-1-hydroxy-1-(pyridin-2-yl)propyl)phenyl)-3-(trifluoromethyl)-1H-pyrazole-5-carboxamide]",0.1 to 50 nM
14,"NCc1cccc(-n2nc(C(F)(F)F)cc2C(=O)Nc2cccc(C(OCC3CC3)c3ccccc3)c2)c1 (single isomer, unassigned; (-)) [165e, (−)-1-(3-(aminomethyl)phenyl)-N-(3-((cyclopropylmethoxy)(phenyl)methyl)phenyl)-3-(trifluoromethyl)-1H-pyrazole-5-carboxamide]",0.1 to 50 nM
15,"NCc1cccc(-n2nc(C(F)(F)F)cc2C(=O)Nc2cc(C(N)(CCC3CC3)c3cccc(C(N)=O)c3)ccc2F)c1 (single isomer, unassigned; (-)) [225a, (−)-N-(5-(1-amino-1-(3-carbamoylphenyl)-3-cyclopropylpropyl)-2-fluorophenyl)-1-(3-(aminomethyl)phenyl)-3-(trifluoromethyl)-1H-pyrazole-5-carboxamide]",0.1 to 50 nM
16,"COC(CCC1CC1)(c1cccnc1)c1cccc(NC(=O)c2cc(C(F)(F)F)nn2-c2cccc(CN)c2)c1 (stereo not drawn) [156c, 1-(3-(aminomethyl)phenyl)-N-(3-(3-cyclopropyl-1-methoxy-1-(pyridin-3-yl)propyl)phenyl)-3-(trifluoromethyl)-1H-pyrazole-5-carboxamide]",0.1 to 50 nM
17,"Cc1ccccc1C(NCC1CC1)c1cccc(NC(=O)c2cc(C(F)(F)F)nn2-c2cccc(CN)c2)c1 (stereo not drawn) [193f, 1-(3-(Aminomethyl)phenyl)-N-(3-(((cyclopropylmethyl)amino)(o-tolyl)methyl)phenyl)-3-(trifluoromethyl)-1H-pyrazole-5-carboxamide]",0.1 to 50 nM
18,"CC(=O)Nc1ccc(C(OCC2CC2)c2cccc(NC(=O)c3cc(C(F)(F)F)nn3-c3cccc(CN)c3)c2)cc1 (stereo not drawn) [147e, N-(3-((4-acetamidophenyl)(cyclopropylmethoxy)methyl)phenyl)-1-(3-(aminomethyl)phenyl)-3-(trifluoromethyl)-1H-pyrazole-5-carboxamide]",0.1 to 50 nM
19,"CCOC(c1ccccc1)c1ccc(F)c(NC(=O)c2cc(C(F)(F)F)nn2-c2cccc(CN)c2)c1 (stereo not drawn) [25b, 1-(3-(aminomethyl)phenyl)-N-(5-(ethoxy(phenyl)methyl)-2-fluorophenyl)-3-(trifluoromethyl)-1H-pyrazole-5-carboxamide]",50 to 100 nM
20,"NCc1cccc(-n2nc(C(F)(F)F)cc2C(=O)Nc2cccc(C(NCC3CC3)c3cccc(OC(F)(F)F)c3)c2)c1 (stereo not drawn) [124f, 1-(3-(aminomethyl)phenyl)-N-(3-((cyclopropylmethylamino)(3-(trifluoromethoxy)phenyl)methyl)phenyl)-3-(trifluoromethyl)-1H-pyrazole-5-carboxamide]",0.1 to 50 nM

# Same assay, conditions: Ki, 2 nM kallikrein, 80 μM S2302, 30° C., pH 7.8; Ki by Cheng-Prusoff equation; values given as ranges
row,Compound,Ki
1,"NCc1cccc(-n2nc(C(F)(F)F)cc2C(=O)Nc2cccc(C(NCC3CC3)c3cc4ccccc4c4ccccc34)c2)c1 (stereo not drawn) [125g, 1-(3-(Aminomethyl)phenyl)-N-(3-((cyclopropylmethylamino)(phenanthren-9-yl)methyl)phenyl)-3-(trifluoromethyl)-1H-pyrazole-5-carboxamide]",0.1 to 50 nM

# Source: patent US11203574B2 (BioCryst Pharmaceuticals, Inc., priority 2014, dated 2021)
